According to patent US9457044B2, “Methods and compositions for wound healing” (CoDa Therapeutics, Inc., priority 2006, dated 2016):

Key:
apoptotic cells = test: TUNEL staining of granulation tissue; format: in vivo, mice; settings: 5, 7 and 10 days after wounding
Procedure: (§1) Male, 8 week old, ICR mice were used in the following experiments. All the mice were kept under specific pathogen-free conditions in an environmentally controlled clean room at University College London and all the experiments were carried out under UK Home Office regulations. Mice were anaesthetized by halothane inhalation. Four full-thickness excisional wounds of 6 mm diameter were made on the shaved back on either side of the dorsal midline with a 6 mm biopsy punch (Kai Industries). To each pair of wounds a single topical application of 50 μl of 1 μM Cx43 as ODN (SEQ. ID No. 2) (Sigma-Genosys) in 30% Pluronic F-127 gel (Sigma-Aldrich), chilled on ice, was made to one wound, and an identical application of 1 μM sense control sODNs was made to the other. […] R. and Becker, D. L. (2003). Targeting connexin 43 expression accelerates the rate of wound repair. Curr Biol 13, 1697-703). Each wound region was digitally photographed at the indicated time intervals, and the areas of the wounds were calculated. All wound areas were expressed as percentages of the initial wound areas. […]
Wound tissues were fixed in 4% formaldehyde buffered with PBS, and embedded in paraffin and sectioned. […] TUNEL stained section were imaged and positive cells were counted in the granulation tissue in three random fields, in the two sides and center of each wound (each field was 0.332 mm2).

myofibroblasts = test: Anti-α smooth muscle actin staining of myofibroblasts in granulation tissue; format: in vivo, mice
Procedure: (§2) Male, 8 week old, ICR mice were used in the following experiments. All the mice were kept under specific pathogen-free conditions in an environmentally controlled clean room at University College London and all the experiments were carried out under UK Home Office regulations. Mice were anaesthetized by halothane inhalation. Four full-thickness excisional wounds of 6 mm diameter were made on the shaved back on either side of the dorsal midline with a 6 mm biopsy punch (Kai Industries). To each pair of wounds a single topical application of 50 μl of 1 μM Cx43 as ODN (SEQ. ID No. 2) (Sigma-Genosys) in 30% Pluronic F-127 gel (Sigma-Aldrich), chilled on ice, was made to one wound, and an identical application of 1 μM sense control sODNs was made to the other. […] R. and Becker, D. L. (2003). Targeting connexin 43 expression accelerates the rate of wound repair. Curr Biol 13, 1697-703). Each wound region was digitally photographed at the indicated time intervals, and the areas of the wounds were calculated. All wound areas were expressed as percentages of the initial wound areas. In some series of experiments, wounds and their surrounding area, including the scab and epithelial margins, were harvested with an 8 mm biopsy punch (Kai Industries) at the indicated time intervals after mice were killed with an overdose of chloroform. A minimum of eight mice were used for each time point examined.
Immunostaining for connexin 43, blood vessels or a smooth muscle actin was carried out on cryostat sections of wounds. Sections were fixed in acetone at 4° C. for 5 minutes prior to blocking for 45 minutes. Incubation in primary antibody was for one hour at the following dilutions: rabbit anti-Cx43 (Sigma) 1:3,000; isoLectin B_FITC 1:2000; von Willebrand Factor (rabbit Dako) 1:400; anti-α smooth muscle actin (Sigma) 1:400 at room temperature. […]
A treatment-blinded observer counted MPO-positive neutrophils and F4/80-positive macrophages in the wound bed (defined as the area surrounded by unwounded skin, fascia, regenerated epidermis, and eschar) in 3 random high-power fields of 0.332 mm^2. BrdU-positive cells in the wound margin and the nascent epidermis regions of each immunohistochemically stained section were counted as described previously and expressed per […] of epidermis (Mori, R., Kondo, T., Nishie, T., Ohshima, T. and Asano, M. (2004). Impairment of skin wound healing in beta-1,4-galactosyltransferase-deficient mice with reduced leukocyte recruitment. Am J Pathol 164, 1303-14). Number of fibroblast like cells (phalloidin-positive cells with spindle-shape body) at the wound margin were counted in high-power fields also (each field was 0.332 mm^2). […] Images were made binary at a standard threshold and positive pixels were counted using Image J (NIH Image).

skin wounds = test: Full-thickness excisional skin wound healing (wound area, re-epithelialization); format: in vivo, mice
Procedure: Male, 8 week old, ICR mice were used in the following experiments. All the mice were kept under specific pathogen-free conditions in an environmentally controlled clean room at University College London and all the experiments were carried out under UK Home Office regulations. Mice were anaesthetized by halothane inhalation. Four full-thickness excisional wounds of 6 mm diameter were made on the shaved back on either side of the dorsal midline with a 6 mm biopsy punch (Kai Industries). To each pair of wounds a single topical application of 50 μl of 1 μM Cx43 as ODN (SEQ. ID No. 2) (Sigma-Genosys) in 30% Pluronic F-127 gel (Sigma-Aldrich), chilled on ice, was made to one wound, and an identical application of 1 μM sense control sODNs was made to the other. […] Targeting connexin 43 expression accelerates the rate of wound repair. Curr Biol 13, 1697-703). Each wound region was digitally photographed at the indicated time intervals, and the areas of the wounds were calculated. All wound areas were expressed as percentages of the initial wound areas. In some series of experiments, wounds and their surrounding area, including the scab and epithelial margins, were harvested with an 8 mm biopsy punch (Kai Industries) at the indicated time intervals after mice were killed with an overdose of chloroform. A minimum of eight mice were used for each time point examined.

Cx43 mRNA = test: Real-Time PCR of Cx43 mRNA at skin wound sites; format: in vivo, mice
Procedure: as §2
Total RNA was extracted from skin wound samples using TRIzol Reagent (Invitrogen), according to the manufacturer's instructions. Ten micrograms of total RNA was reverse-transcribed into cDNA using the SuperScript First-Strand Synthesis System for RT-PCR (Invitrogen).
Gene specific primers and probe were obtained as TaqMan® Gene Expression Assays (Applied Biosystems) for Cx43, Ccl2, Co1α1, TNFα and TGFβ1. The enzyme and buffer system was purchased as TaqMan® Universal PCR Master Mix (Applied Biosystems). Each sample was analyzed in duplicate. Amplification and real-time detection was performed in the DNA Engine Opticon®2 (MJ Research Inc.). […]

Cx43 protein = settings: within two hours; Becker 1999, McGonnell 2001, Qiu 2003; cited from earlier work
TGF-β1 mRNA = test: Real-Time PCR of TGF-β1 at wound sites; format: in vivo, mice
Procedure: as §1
Gene specific primers and probe were obtained as TaqMan® Gene Expression Assays (Applied Biosystems) for Cx43, Ccl2, Co1α1, TNFα and TGFβ1. […] Each sample was analyzed in duplicate. […]

Sequence: GTAATTGCGGCAGGAGGAATTGTTTCTGTC (antisense GTAATTGCGGCAGGAGGAATTGTTTCTGTC; in Pluronic F-127 gel, further chemistry not given here) [Cx43 asODN]
- numbers of TUNEL positive cells, control versus treated (apoptotic cells): no significant differences
- SMA staining at the edges of the granulation tissue (myofibroblasts; 10 days after wounding, P=0.000002 versus control): most of the staining for SMA had gone
- SMA staining (myofibroblasts; day 5, no staining in control wounds): could be detected at the edges of the granulation tissue
- SMA staining at the edges of the granulation tissue, quantified (myofibroblasts; day 7, P=0.004 versus control): significantly higher
- advance over controls in maturation of granulation tissue (myofibroblasts; mouse, in vivo): 2 to 3 days
- macroscopic wound appearance and closure versus control wounds (skin wounds; days 1 and 2): significantly smaller, drier, less inflamed and closed faster
- re-epithelialisation versus control ODN treated wounds (skin wounds; excisional and incisional wounds): re-epithelialise more rapidly
- expression of Cx43 mRNA relative to GAPDH (Cx43 mRNA; 7 days after the injury): 4.6 units
- reduction of Cx43 mRNA versus control sODN-treated wounds (Cx43 mRNA; one day after injury, P<0.05): 37%
- expression of Cx43 mRNA relative to GAPDH (Cx43 mRNA; one day after injury, single topical 50 μl of 1 μM in 30% Pluronic F-127 gel): 2.95 units
- knockdown of Cx43 protein at the site of delivery (Cx43 protein): significant knockdown
- expression of TGF-β1 mRNA versus control sODN-treated wounds (TGF-β1 mRNA; day 2 after the injury, P<0.05): significantly increased
- expression of TGF-β1 mRNA, control versus treated wounds (TGF-β1 mRNA; days 1 and 7): no difference
